ChEMBL document CHEMBL1201862, “PubChem BioAssay data set” (2004)
The source made the active and inactive calls.

What was measured:
[1] = biological target: T1, Short transient receptor potential channel 4 (Mus musculus, UniProt Q9QUQ5); test: calcium entry via TRPC4 opening agents – cell-based, HEK293 TRPC4/mu-opioid, Fluo-4 calcium, dose response (AID 434937); type: functional
T1 sequence (Q9QUQ5 whole entry): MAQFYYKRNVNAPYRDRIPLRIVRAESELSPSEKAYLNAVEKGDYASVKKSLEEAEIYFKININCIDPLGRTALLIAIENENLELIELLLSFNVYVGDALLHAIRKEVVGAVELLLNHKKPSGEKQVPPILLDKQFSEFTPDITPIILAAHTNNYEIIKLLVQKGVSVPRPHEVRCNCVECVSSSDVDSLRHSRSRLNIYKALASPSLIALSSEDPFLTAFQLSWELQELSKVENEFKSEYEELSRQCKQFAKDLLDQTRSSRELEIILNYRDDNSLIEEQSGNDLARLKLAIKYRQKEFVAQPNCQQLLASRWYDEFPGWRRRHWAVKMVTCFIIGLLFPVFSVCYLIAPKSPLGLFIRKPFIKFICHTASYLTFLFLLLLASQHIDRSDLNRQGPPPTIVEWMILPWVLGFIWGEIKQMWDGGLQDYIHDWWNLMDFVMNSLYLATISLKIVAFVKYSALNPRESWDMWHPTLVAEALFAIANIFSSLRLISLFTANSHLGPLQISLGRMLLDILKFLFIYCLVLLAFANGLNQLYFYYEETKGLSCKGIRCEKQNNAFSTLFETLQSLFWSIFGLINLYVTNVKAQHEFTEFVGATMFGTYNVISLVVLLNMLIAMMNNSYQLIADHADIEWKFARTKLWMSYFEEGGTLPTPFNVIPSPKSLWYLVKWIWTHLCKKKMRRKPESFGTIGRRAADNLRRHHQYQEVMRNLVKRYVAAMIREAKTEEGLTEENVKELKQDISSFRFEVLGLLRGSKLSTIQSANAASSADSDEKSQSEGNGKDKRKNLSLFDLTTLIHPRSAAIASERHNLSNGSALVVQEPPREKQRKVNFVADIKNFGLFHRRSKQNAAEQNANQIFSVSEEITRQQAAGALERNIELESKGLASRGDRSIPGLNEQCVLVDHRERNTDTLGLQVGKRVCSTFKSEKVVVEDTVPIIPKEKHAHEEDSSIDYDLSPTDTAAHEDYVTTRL

[2] = biological target: Delta-type opioid receptor (Homo sapiens, UniProt P41143); test: Counterscreen for agonists of heterodimerization of the mu 1 (OPRM1) and delta 1 (OPRD1) opioid receptors: Luminescence-based cell-based high throughput dose response assay to identify agonists of OPRD1 homodimerization. [Related pubchem assays (depositor defined):AID504326, AID504355, AID504692, AID504904, AID504905]; type: functional
Mu-type opioid receptor = Mu-type opioid receptor (Homo sapiens, UniProt P35372); test: Counterscreen for agonists of heterodimerization of the mu 1 (OPRM1) and delta 1 (OPRD1) opioid receptors: Luminescence-based cell-based high throughput dose response assay to identify agonists of OPRM1 homodimerization.; type: functional;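 note: U2OS cells expressing OPRM1 and beta-arrestin as split beta-galactosidase partners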
[3] = biological target: 5-hydroxytryptamine receptor 5A (Homo sapiens, UniProt P47898); test: Counterscreen for agonists of OPRM1-OPRD1 heterodimerization: luminescence-based cell-based high throughput dose response assay to identify agonists of 5-hydroxytryptamine (serotonin) 5A receptor (HTR5A). [Related pubchem assays (depositor defined):AID504326, AID504355, AID504692, AID504904, AID504905]; type: functional
[4] = microbe, parasite or virus in culture; type: functional; details: Mycobacterium tuberculosis
[5] = THP-1 cell cytotoxicity, dose response, cytotoxicity control for non-replicating M. tuberculosis project (AID 489025); type: functional
[6] = HepG2 cell cytotoxicity, dose response, cytotoxicity control for non-replicating M. tuberculosis project (AID 489018); type: functional; details: Mycobacterium tuberculosis
[7] = Vero E6 cell cytotoxicity, dose response, cytotoxicity control for non-replicating M. tuberculosis project, secondary assay (AID 492998); type: functional, VeroE6; details: Vero C1008
[8] = biological target: T2, Microphthalmia-associated transcription factor (Homo sapiens, UniProt O75030); test: reducers of TRPM1 reporter luminescence, concentration series – cell-based, SK-MEL-5, cherry-picked, set 3, MITF inhibitor project, dose response (AID 493073); type: functional;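 note: SK-MEL-5 melanoma cells with luciferase driven by the MITF target TRPM1 promoter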
T2 sequence (O75030 whole entry): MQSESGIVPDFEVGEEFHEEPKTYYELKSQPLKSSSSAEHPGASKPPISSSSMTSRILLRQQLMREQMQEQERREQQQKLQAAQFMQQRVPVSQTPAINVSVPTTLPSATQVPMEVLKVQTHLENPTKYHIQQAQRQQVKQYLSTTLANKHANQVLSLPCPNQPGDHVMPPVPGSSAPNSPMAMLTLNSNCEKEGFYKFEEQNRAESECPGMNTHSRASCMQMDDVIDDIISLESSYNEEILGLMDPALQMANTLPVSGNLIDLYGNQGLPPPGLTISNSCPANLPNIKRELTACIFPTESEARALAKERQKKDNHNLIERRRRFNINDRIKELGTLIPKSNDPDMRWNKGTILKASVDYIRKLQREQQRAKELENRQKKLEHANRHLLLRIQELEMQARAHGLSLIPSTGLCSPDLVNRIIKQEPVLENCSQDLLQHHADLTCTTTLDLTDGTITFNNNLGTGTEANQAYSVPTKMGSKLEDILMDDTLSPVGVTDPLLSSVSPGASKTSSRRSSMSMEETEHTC

cells = type: functional
[9] = biological target: T3, High affinity choline transporter 1 (Homo sapiens, UniProt Q9GZV3); test: human choline transporter blockers, potency – cell-based, 5-point CRC, membrane potential dye, dose response (AID 504840); type: functional
T3 sequence (Q9GZV3 whole entry): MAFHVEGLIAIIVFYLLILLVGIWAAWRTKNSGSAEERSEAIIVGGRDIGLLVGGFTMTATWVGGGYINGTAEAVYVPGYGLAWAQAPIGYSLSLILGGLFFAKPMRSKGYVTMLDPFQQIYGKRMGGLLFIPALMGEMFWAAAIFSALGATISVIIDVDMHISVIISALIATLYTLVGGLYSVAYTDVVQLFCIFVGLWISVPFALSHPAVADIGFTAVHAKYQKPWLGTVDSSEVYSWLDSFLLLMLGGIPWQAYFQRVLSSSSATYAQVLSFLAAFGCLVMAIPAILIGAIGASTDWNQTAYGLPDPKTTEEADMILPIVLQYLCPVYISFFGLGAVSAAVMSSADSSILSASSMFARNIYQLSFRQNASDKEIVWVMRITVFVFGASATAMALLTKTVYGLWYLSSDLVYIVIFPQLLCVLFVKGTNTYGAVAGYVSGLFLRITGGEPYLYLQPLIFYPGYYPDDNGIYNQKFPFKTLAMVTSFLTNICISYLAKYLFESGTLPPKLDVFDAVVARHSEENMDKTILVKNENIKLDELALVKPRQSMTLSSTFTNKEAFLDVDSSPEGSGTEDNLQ

A-375 = test: proliferation inhibition in MITF-low A375 cells – cell-based, cherry-pick samples, set 2, counter-screen for MITF modulator project, dose response (AID 540335); type: functional; details: Homo sapiens
[10] = reduction of Shn3 3'UTR-driven luciferase in osteoblasts – cell-based, Clone20 osteoblasts, firefly luciferase, cherry-picked, dose response (AID 624132); type: functional;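 note: firefly luciferase luminescence from reporter carrying the Shn3 3'UTR in osteoblasts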
[11] = loss of viability in HepG2 cells – cell-based, CellTiter-Glo, cherry-picked, cytotoxicity control for Shn3 inhibitor project, dose response (AID 624134); type: functional
[12] = non-specific 3'UTR reporter inhibition in Clone20-Shn3RL – cell-based, Renilla luciferase, cherry-picked, counter-screen for Shn3 inhibitor project, dose response (AID 624133); type: functional
[13] = biological target: T4, Heat shock factor protein 1 (Mus musculus, UniProt P38532); test: decrease of HSF1-responsive luciferase luminescence – cell-based, NIH3T3, dose retest, confirmation (AID 2382); type: functional;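 note: NIH3T3 fibroblasts with HSF1-driven luciferase reporter stressed by proteasome inhibitor MG132; luminescence from HSF1-driven luciferase expression after 8 hours of MG132 stress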
T4 sequence (P38532 whole entry): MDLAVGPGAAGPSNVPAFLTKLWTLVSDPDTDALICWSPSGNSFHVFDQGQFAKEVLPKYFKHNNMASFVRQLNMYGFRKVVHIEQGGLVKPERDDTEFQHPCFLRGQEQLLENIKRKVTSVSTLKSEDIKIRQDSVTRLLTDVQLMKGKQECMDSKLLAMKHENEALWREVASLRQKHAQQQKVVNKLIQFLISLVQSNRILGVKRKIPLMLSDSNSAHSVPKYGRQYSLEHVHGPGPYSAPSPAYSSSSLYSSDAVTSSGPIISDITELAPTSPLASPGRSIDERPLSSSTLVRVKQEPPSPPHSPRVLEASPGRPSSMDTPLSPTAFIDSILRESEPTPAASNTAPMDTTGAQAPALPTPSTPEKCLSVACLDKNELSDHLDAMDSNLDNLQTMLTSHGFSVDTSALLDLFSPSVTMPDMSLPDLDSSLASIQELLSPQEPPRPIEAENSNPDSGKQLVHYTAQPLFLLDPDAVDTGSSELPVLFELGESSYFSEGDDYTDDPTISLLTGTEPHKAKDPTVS

[14] = Trypanosoma cruzi growth suppression in host cells – NIH3T3 host cells, beta-gal luminescence, confirmation (AID 2044); type: functional, cell-based;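 note: intracellular parasites grown in NIH/3T3 mouse fibroblasts as host cells; luminescent beta-galactosidase reporter signal from transgenic T. cruzi replicating inside host cells; inhibitors lower the luminescence signal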
[15] = NIH3T3 cell viability loss – ATP luminescence, mouse fibroblasts, counter-screen, dose response (AID 2010); type: functional, cell-based;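 note: cells exposed to compound for about 90 hours before reading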
[16] = Luminescence Cell-Based Dose Retest to Confirm Inhibitors of Cancer Stem Cells. [Related pubchem assays (depositor defined):AID2717, AID2721]; type: functional; details: Homo sapiens
[17] = biological target: C-C chemokine receptor type 6 (Homo sapiens, UniProt P51684); test: antagonism of CCR6 beta-arrestin recruitment – cell-based, luminescent beta-arrestin readout, dose response (AID 504728); type: functional
Beta-galactosidase = Beta-galactosidase (Escherichia coli, UniProt Q8VNN2); test: detection-enzyme interference by beta-gal modulators – biochemical, E. coli enzyme, set 3, artefact control for CCR6 antagonist project, dose response (AID 504712); type: functional
INS1 = test: INS-1E survival protection against cytokine death – cell-based, luminescence, retest, dose response (AID 449756); type: functional; details: Rattus norvegicus;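 note: cell death triggered by IL-1 beta plus TNF-alpha plus IFN-gamma mixture; protective hits raise ATP signal compared with cytokine alone wells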
Paired box protein Pax-8 = Paired box protein Pax-8 (Homo sapiens, UniProt Q06710); test: PAX8 transcriptional activity inhibition in RMG-I – RMG-I cells, luciferase, cherry-pick, dose response (AID 687027); type: functional, cell-based;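 note: luciferase reporter driven by Pax8 target thyroperoxidase promoter measured by SteadyGlo luminescence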
[18] = general cell-killing toxicity readout – plate reader, dry powder samples, cytotoxicity control for PAX8 inhibitor project, dose response (AID 743021); type: functional, cell-based

Mu-type opioid receptor, sequence (P35372 whole entry): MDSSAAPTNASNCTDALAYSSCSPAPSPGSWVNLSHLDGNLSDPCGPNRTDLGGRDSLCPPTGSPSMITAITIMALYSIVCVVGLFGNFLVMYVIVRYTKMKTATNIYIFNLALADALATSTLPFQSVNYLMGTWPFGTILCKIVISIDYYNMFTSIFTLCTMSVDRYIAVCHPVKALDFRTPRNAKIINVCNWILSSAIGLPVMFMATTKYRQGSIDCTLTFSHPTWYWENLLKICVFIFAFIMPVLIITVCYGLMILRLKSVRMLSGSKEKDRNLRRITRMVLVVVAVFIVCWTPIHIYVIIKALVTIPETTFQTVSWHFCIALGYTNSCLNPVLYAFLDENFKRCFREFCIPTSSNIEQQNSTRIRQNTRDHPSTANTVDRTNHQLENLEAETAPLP
Beta-galactosidase, sequence (Q8VNN2 whole entry): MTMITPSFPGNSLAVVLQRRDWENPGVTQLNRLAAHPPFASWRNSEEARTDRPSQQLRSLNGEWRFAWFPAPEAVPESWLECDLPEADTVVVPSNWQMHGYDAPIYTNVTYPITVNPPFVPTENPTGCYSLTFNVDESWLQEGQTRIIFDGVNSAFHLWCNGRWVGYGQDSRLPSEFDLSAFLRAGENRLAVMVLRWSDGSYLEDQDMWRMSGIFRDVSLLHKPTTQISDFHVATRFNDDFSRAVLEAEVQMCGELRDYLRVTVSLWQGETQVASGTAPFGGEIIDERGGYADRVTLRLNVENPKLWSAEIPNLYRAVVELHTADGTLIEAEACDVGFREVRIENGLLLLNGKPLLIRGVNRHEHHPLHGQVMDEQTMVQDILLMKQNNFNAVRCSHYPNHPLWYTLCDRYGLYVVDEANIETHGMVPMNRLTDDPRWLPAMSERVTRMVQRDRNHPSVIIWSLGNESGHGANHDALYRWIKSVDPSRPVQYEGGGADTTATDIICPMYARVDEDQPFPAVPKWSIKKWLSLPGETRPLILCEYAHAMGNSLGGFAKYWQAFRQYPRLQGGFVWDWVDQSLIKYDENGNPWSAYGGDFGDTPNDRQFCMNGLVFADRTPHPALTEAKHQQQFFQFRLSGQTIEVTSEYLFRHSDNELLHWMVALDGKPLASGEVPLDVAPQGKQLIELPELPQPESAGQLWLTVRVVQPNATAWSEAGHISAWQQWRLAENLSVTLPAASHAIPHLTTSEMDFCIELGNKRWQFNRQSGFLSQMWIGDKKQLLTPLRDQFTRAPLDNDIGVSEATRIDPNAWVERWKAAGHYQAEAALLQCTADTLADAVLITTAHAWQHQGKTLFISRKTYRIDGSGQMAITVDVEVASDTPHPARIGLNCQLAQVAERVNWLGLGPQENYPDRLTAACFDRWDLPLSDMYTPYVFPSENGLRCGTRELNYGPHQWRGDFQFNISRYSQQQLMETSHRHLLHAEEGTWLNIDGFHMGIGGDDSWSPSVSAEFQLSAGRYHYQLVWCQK
5-hydroxytryptamine receptor 5A, sequence (P47898 whole entry): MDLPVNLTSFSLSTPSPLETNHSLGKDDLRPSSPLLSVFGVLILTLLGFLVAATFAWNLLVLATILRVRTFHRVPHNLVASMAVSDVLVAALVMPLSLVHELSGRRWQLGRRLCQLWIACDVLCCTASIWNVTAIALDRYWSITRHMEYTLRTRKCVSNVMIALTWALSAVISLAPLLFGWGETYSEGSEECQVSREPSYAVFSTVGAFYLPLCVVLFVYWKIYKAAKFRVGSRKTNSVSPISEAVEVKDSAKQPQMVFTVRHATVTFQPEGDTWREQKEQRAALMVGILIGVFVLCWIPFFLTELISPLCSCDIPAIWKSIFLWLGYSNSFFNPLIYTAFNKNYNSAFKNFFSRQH
Delta-type opioid receptor, sequence (P41143 whole entry): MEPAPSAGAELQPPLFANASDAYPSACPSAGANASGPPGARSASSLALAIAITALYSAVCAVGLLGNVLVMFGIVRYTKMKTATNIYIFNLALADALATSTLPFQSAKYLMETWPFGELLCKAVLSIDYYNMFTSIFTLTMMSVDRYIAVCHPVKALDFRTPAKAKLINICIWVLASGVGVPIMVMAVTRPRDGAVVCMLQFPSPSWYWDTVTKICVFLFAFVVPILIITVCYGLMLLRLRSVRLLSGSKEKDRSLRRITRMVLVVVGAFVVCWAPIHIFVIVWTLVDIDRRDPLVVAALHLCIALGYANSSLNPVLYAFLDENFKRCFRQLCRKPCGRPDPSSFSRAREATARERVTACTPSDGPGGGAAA
Paired box protein Pax-8, sequence (Q06710 whole entry): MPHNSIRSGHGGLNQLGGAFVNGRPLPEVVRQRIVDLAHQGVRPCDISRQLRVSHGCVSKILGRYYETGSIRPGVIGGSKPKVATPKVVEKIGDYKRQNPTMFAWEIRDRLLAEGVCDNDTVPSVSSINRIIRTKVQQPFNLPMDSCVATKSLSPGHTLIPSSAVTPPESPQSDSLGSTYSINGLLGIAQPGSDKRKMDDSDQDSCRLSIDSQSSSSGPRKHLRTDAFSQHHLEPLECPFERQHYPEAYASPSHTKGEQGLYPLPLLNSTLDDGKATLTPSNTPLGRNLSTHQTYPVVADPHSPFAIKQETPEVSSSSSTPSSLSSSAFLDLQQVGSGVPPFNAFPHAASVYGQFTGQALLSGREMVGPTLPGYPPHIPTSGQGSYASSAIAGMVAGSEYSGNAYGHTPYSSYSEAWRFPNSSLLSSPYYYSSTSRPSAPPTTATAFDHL
C-C chemokine receptor type 6, sequence (P51684 whole entry): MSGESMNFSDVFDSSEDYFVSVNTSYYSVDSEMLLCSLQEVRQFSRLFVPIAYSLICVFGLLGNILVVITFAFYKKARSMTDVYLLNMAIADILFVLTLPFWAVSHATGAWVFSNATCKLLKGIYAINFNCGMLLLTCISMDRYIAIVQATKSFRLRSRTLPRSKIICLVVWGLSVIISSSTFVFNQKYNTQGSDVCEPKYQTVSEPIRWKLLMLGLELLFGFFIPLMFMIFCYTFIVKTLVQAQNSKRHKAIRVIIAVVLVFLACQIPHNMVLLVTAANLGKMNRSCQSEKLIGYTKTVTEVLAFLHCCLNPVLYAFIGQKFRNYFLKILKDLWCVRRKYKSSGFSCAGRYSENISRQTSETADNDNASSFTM

Question: Which results are given for COc1ccc(C(CNC(=O)c2ccc(S(=O)(=O)N(C)C)cc2)N(C)C)cc1 (stereo unspecified)?
Answer: EC50 [1]: 1.5 µM (active); EC50 [2]: 85.6 µM (inactive); EC50 (Mu-type opioid receptor): > 92.5 µM (inactive); EC50 [3]: > 92.5 µM (inactive)

Question: With N=c1n(Cc2ccc(Cl)cc2)c2ccccc2n1CC(O)COc1ccccc1 (stereo unspecified) as the compound, how does the CC50 [4] read?
Answer: 11.6 µM (active)

Question: And the CC50 [5]?
Answer: 11.8 µM (active)

Question: What about the CC50 [6] of the same compound?
Answer: 8.02 µM (active)

Question: And the CC50 [7]?
Answer: 11.8 µM (active)

Question: And the AC50 [8]?
Answer: 9.25 µM (active)

Question: And the IC50 (cells)?
Answer: 14.1 µM (active)

Question: What about the IC50 [9] of the same compound?
Answer: 15 µM (active)

Question: What about the AC50 (A-375) of the same compound?
Answer: 13.9 µM (active)

Question: What about the AC50 [10] of the same compound?
Answer: 2.34 µM (active)

Question: And the AC50 [11]?
Answer: 14.2 µM (active)

Question: And the AC50 [12]?
Answer: 3.61 µM (active)

Question: For Cc1ccc(C(=O)N/C(=C\c2ccc(-c3ccc(Br)cc3)o2)C(=O)NCCCN(C)C)cc1, which EC50 [13] is on record?
Answer: 24.1 µM (active)

Question: And the EC50 [14]?
Answer: 1.56 µM (active)

Question: What about the EC50 [15] of the same compound?
Answer: > 30 µM (not active)

Question: What about the AC50 [16] of the same compound?
Answer: 2.81 µM (active)

Question: And the IC50 [17]?
Answer: 24.6 µM (inactive)

Question: And the IC50 (Beta-galactosidase)?
Answer: > 66.6 µM (inactive)

Question: What about the AC50 [8] of the same compound?
Answer: 6.84 µM (active)

Question: And the AC50 (INS1)?
Answer: 7.33 µM (active)

Question: What about the AC50 (A-375) of the same compound?
Answer: 17.7 µM (active)

Question: What about the AC50 (Paired box protein Pax-8) of the same compound?
Answer: 17.4 µM (active)

Question: What about the AC50 [18] of the same compound?
Answer: 61.2 µM (active)
